Assay results from patent publication US20180201651A1, “PHARMACEUTICAL COMPOSITION THAT IS ANTICANCER AND SUPPRESSES CANCER METASTASIS, CONTAINING, AS ACTIVE INGREDIENT, FUSION PEPTIDE SIMULTANEOUSLY TARGETING CANCER CELL AND TUMOR ASSOCIATED MACROPHAGE” (Kyungpook National University Industry-Academic Cooperation …, priority 2015, published 2018).
Where no end group is shown, it is not given here.

What was measured:
IL-4 receptor [1] = assay: Immunofluorescent staining of IL4RPep-1 bound to IL-4 receptors and cells; type: cell-based
Protocol: In order to test whether the peptides binds to cells, tumor cells were blocked with 1% BSA solution initially, 10 μM FITC-labeled IL4RPep1 peptides of SEQ ID NO: 1 were then incubated at 4° C. for 1 hour. The cells were washed and fixed with 4% PFA, while their nuclei were stained with DAPI.
To evaluate the expression level of IL-4 receptor in the cells or tumor tissues, immunostaining was performed on frozen tissue sections or fixed mouse tumor cell lines by using anti-IL-4R, anti-IL13Rα1 and anti-IL2R γC antibodies.
After being washed with PBS, the cells were incubated at room temperature for 1 hour with secondary antibodies. Finally, following nuclear staining with DAPI, the cells were examined by a fluorescence microscope (Zeiss, Germany).

IL-10-treated 4T1 cells = assay: IL4RPep-1 binding affinity assay on IL-10-treated versus wild-type 4T1 cells; parameters: species or system mouse; conditions: FIG. 9A
Protocol: Blocking the tumor cells with 1% BSA at room temperature for 30 minutes, the biotin-labeled IL4RPep-1 peptides of various concentrations (1 to 80 μM) were incubated for 1 hour. After washing with PBS, the cells were incubated with Neutravidin HRP (1: 10000) at room temperature for 30 minutes. HRP activity was measured by using the TMB substrate, and the reaction was stopped using 2M sulfuric acid. Absorbance was measured at 450 nm using TECAN microplate reader. Kd values were calculated using Graph Pad Prism 6 software (GraphPad software Inc., La Jolla, La.).
4T1 cells were cultured using DMEM medium containing 50% of the mouse spleen-derived macrophages which were differentiated into M2 type macrophages. As for the culture medium containing TAM, the debris was removed by centrifugation and strainer prior to use. Cytokine-induced epithelial mesenchymal transition was implemented by culturing the cells with mouse IL-10 and mouse IL-4 for 24 hours or with mouse TFGβ-containing medium for 48 hours. Subsequently, the cells were stained with N-cadherin (a mesenchymal marker), and the expression level of IL-4 receptor was evaluated.

IL-4 receptor [2] = biological target: T1, IL-4 receptor (Mus musculus, UniProt P16382); assay: In vivo optical imaging and histological analysis of peptide binding in 4T1 tumor cells-transplanted mice; conditions: for fluorescence in tumor tissues: Flamma 675-labeled peptide, tail vein
T1 construct: from tissue; host or cells: 4T1 tumour tissue in wild-type Balb/c mice (IL4R alpha knockout mice as negative control)
T1 sequence (P16382 26-810): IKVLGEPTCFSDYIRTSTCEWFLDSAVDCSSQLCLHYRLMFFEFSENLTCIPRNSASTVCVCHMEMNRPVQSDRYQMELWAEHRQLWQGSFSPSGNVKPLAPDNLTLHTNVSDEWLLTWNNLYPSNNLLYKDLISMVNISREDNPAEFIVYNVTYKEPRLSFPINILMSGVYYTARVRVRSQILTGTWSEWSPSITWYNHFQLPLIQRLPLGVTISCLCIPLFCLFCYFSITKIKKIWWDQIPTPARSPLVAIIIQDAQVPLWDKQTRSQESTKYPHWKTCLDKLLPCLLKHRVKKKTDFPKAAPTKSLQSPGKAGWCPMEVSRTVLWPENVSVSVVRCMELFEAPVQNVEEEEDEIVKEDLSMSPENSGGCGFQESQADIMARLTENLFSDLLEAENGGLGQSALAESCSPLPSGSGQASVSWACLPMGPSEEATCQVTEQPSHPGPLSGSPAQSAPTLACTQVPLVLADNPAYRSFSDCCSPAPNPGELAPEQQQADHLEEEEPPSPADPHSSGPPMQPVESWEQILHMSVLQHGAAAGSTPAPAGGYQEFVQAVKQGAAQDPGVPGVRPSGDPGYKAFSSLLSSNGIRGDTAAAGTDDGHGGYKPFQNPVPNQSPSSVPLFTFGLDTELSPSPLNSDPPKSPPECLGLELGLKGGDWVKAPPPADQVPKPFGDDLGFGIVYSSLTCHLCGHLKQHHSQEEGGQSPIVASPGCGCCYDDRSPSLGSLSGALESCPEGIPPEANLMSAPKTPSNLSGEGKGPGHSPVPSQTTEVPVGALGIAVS
Source text: Female wild-type Balb/c mice were purchased from Orient Bio (Republic of Korea) to prepare IL-4 receptor-deficient mice. Mouse tumor models were produced by subcutaneously injecting 1×10^6 4T1 tumor cells into the flank top skin of the wild-type and IL-4 receptor-deficient mice, respectively. Orthotopic animal models were produced by injecting 1×10^6 4T1 cells into the mammary fat tissue of the mice.
(§1) The Flamma 675-labeled IL4RPep-1 peptide (SEQ ID NO: 1) and control peptide (NSSSVDK) of SEQ ID NO: 7 were administered via the tail vein of 4T1 tumor cells-transplanted wild-type mice and the IL-4 receptor-deficient mice, respectively. In vivo imaging was conducted using the Optix imaging system (ART Inc., Canada) after one hour and two hours circulation. The mice were sacrificed after imaging, and tumors and organs were then excised for ex vivo imaging.
For immunohistochemical analysis, excised tumors were fixed with 4% PFA and dehydrated with 30% sucrose. 8 μm thick slices of the tumor were prepared and their histological structures were evaluated by DAPI staining.
Additionally, in order to analyze the tendency of […] of the peptide and the receptor in the tumor tissues, the tumor samples were immunostained with anti-IL4Rα antibodies and F4/80 antibodies, followed by detection with Alexa-488/594-conjugated secondary IgG antibodies (invitrogen).

[3] = system: IL-10-treated 4T1 tumor cells; assay: Cytotoxicity evaluation (CCK8 kit); type: cell-based, mouse; conditions: FIG. 10B
Protocol: (§2) Absorbance was measured at 450 nm, and cytotoxicity was calculated by the following equation:
(§3) Cell viability=(A sample−A blank/A control−A blank)×100
(§4) A control=Absorbance value of the well which contains only cells and CCK8 solution

[4] = system: M2 type macrophages (tumor-associated macrophages, TAM)
Protocol: as §2, §3, §4

wild-type 4T1 cells = assay: Cytotoxicity evaluation (CCK8 kit); type: cell-based, mouse; conditions: FIG. 10A
Protocol: as §2, §3, §4

4T1 tumor = assay: In vivo anti-cancer and cancer metastasis inhibitory activity, orthotopic 4T1 tumor model; parameters: species or system mouse
Protocol: Orthotropic 4T1 tumor model were produced by the implantation of 1×10^6 4T1 cells into the left mammary fat pad of the wild-type Balb/c mouse. Tumor was left to grow until its size reached approximately 100 mm^3, followed by random segregation of mice into separate groups for administration. Mice were separated into a total of six groups with five […] in each group. Peptides ([…] ID NO: 1) and […] fusion polypeptide (SEQ ID NO: 3), respectively) were administered via the tail vein of the mouse at an equimolar concentration (1 mM peptide 200/20 g body weight of mice, administered 3 times a week for 4 weeks). Mice of the other three groups were intraperitoneally administered with 8 mg/kg dosage concentration of paclitaxel once a week, in addition to the administration of the peptides. […] The weight and tumor size of the mice were observed after administration. The tumor size was measured with a digital caliper, and the volume of the tumor was calculated by the following equation: V=(L×W×H)/2 (L: the longest-length, W: Short length, H: height) The mice were sacrificed after the last dose, and metastasis of the tumor into the lungs and liver was evaluated. The excised tumors and organs were fixed in 4% PFA and used for additional immunohistological analysis. Frozen tumor tissues were blocked with a blocking solution of 1 g of BSA, 0.2 g of gelatin and 0.05 g of saponin dissolved in PBS, followed by incubation using primary antibodies for 11⁄2 hours and staining using HRP-labeled secondary antibodies for 45 minutes at room temperature. The stained tissues were exposed using DAB (DAKO) and a contrast dyeing was performed using hematoxylin for 5 minutes at room temperature. Each step moved onto the next one after washing with PBS containing 10% blocking solution. Finally, the tissues were observed by Bright Field Microscopy.

mouse IL-4 receptor = biological target: T2, mouse IL-4 receptor (mouse, UniProt P16382 26-810); assay: in vivo and ex vivo fluorescence imaging, Flamma 675-labelled peptide, 4T1 tumor-bearing Balb/c mice
T2 construct: whole, on cells; The target is endogenous receptor on mouse cells, not a purified protein; also called IL4R alpha
T2 sequence (looked up): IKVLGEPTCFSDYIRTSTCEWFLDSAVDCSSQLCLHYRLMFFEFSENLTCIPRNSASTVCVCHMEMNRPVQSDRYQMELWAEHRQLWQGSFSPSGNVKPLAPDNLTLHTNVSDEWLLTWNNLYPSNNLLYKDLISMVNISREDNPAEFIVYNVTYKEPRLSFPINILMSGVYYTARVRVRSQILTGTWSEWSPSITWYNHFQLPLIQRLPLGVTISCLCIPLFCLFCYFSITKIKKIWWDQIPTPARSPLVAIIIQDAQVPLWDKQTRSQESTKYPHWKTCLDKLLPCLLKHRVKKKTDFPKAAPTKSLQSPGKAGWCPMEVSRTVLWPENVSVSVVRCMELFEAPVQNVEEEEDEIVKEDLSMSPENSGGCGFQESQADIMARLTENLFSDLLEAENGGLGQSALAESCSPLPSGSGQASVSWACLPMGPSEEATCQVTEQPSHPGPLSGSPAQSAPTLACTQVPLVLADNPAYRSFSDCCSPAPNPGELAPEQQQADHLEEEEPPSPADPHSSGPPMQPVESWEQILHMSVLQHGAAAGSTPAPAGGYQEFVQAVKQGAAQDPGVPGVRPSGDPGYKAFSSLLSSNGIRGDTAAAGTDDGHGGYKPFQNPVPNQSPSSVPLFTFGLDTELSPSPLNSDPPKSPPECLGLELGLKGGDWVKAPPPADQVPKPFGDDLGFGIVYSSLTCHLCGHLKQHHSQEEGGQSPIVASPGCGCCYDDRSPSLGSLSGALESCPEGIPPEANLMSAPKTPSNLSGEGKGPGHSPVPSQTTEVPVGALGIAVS
Protocol: as §1
It was evaluated whether the IL4RPep-1 peptide having the amino acid sequence of SEQ ID NO: 1 specifically binds to IL-4 receptor in 4T1 tumor cells-transplanted Balb/c wild-type mice and Balb/c IL-4 receptor-deficient (knockout) mice, respectively. That is, Flamma 675-labeled IL4RPep-1 peptides and control peptides (NSSSVDK, SEQ ID NO: 7) were administered into the tail vein of the mouse, respectively, followed by real time observation for fluorescence intensity.

[5] = 4T1-transplanted wild-type Balb/c mice, in vivo and ex vivo
[6] = frozen tumor sections, antibody staining, versus control group, FIG. 13

Protocol for M1-type macrophages: as §2, §3, §4

CRKRLDRNC [IL4RPep-1]
binding to cells versus expression pattern of IL-4 receptors (IL-4 receptor [1]; 4T1, A549, MDA-MB 231, M1 and M2 type Raw 264.7 cells, FITC-labeled peptide 10 μM): specifically bind to IL-4 receptors | binding pattern to cells versus expression pattern of IL-4 receptors (IL-4 receptor [1]; mouse spleen-derived M1 type and M2 type macrophages, FIG. 2A): the same as the expression pattern of IL-4 receptors | binding affinity in IL-10-treated 4T1 cells compared with wild-type 4T1 cells (IL-10-treated 4T1 cells): significantly excellent | fluorescence in tumor tissues (IL-4 receptor [2]; 4T1-transplanted IL-4 receptor-deficient (knockout) Balb/c mice): no fluorescence was detected | fluorescence in tumor tissues (IL-4 receptor [2]; [5]): strongly detected | peptide binding in excised tumor tissue fragments (IL-4 receptor [2]; IL-4 receptor-deficient mice, immunostaining, FIG. 4B): no binding | peptide staining in excised tumor tissue fragments (IL-4 receptor [2]; wild-type mice, immunostaining, FIG. 4A): in the same pattern as that of IL-4 receptors

CRKRLDRNCGGGKLAKLAKKLAKLAK (Fusion peptide) [IL4RPep-1-KLA]
cytotoxicity [3]: excellent cytotoxicity | cytotoxicity [4]: excellent cytotoxicity | cytotoxicity (wild-type 4T1 cells): insignificant | cytotoxicity (M1-type macrophages): insignificant | tumor growth (4T1 tumor; Balb/c mice, tail vein, 3 times a week for 4 weeks, from administration until end of experiment, FIG. 11): significantly suppressed | CD4(+) T cells in tumor tissue (4T1 tumor; [6]): decreased | CD8 (+) T cells in tumor tissue (4T1 tumor; [6]): increased | CD80(+) macrophages in tumor tissue (4T1 tumor; [6]): increased | F4/80(+) tumor-associated macrophages in tumor tissue (4T1 tumor; [6]): reduced | N-cadherins in tumor tissue (4T1 tumor; [6]): reduced | metastasis of cancer in liver and lungs (4T1 tumor; organs excised after final administration, FIGS. 12A and 12B): not observed at all

NSSSVDK [control peptide, reference compound]
fluorescence in tumor tissues (IL-4 receptor [2]; [5]): no fluorescence was detected

B1: control peptide (NSSSVDK) (peptide)
peptide: NSSSVDK
modifications: also: Flamma 675 label, position not given here
notes: Control peptide
binding result (mouse IL-4 receptor): no binding
